According to PubChem BioAssay (NCI):
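1) Cells in 96-well plates. 2) Compound, 48 h, 5 concentrations. 3) Linear interpolation between surrounding doses. 4) Unreached endpoint = highest concentration. GI50 = concentration required for 50% inhibition of growth. TGI marks complete inhibition of growth.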

What was measured:
Test in all cases: NCI tumour cell line growth inhibition, 48 h
HS 578T breast = tested on: HS 578T breast
SN12C renal = tested on: SN12C renal
IGROV1 ovarian = tested on: IGROV1 ovarian
NCI-H460 lung = tested on: NCI-H460 lung
EKVX NSCLC = tested on: EKVX NSCLC
K-562 leukemia = tested on: K-562 leukemia
SK-OV-3 ovarian = tested on: SK-OV-3 ovarian
SK-MEL-2 melanoma = tested on: SK-MEL-2 melanoma
NCI/ADR-RES ovarian = tested on: NCI/ADR-RES ovarian
OVCAR-8 ovarian = tested on: OVCAR-8 ovarian

SMILES: Clc1nc(Cl)c2c3c(sc2n1)CCCC3
- TGI (HS 578T breast): > 100 µM
- GI50 (SN12C renal): 3.26 µM
- TGI (SN12C renal): > 100 µM
- GI50 (IGROV1 ovarian): 3.85 µM
- TGI (IGROV1 ovarian): > 100 µM
- GI50 (NCI-H460 lung): > 100 µM
- TGI (NCI-H460 lung): > 100 µM
- GI50 (EKVX NSCLC): > 100 µM
- TGI (EKVX NSCLC): > 100 µM
- GI50 (K-562 leukemia): 3.77 µM
- TGI (K-562 leukemia): > 100 µM
- GI50 (SK-OV-3 ovarian): > 100 µM
- TGI (SK-OV-3 ovarian): > 100 µM
- TGI (SK-MEL-2 melanoma): > 59.7 µM
- GI50 (NCI/ADR-RES ovarian): 5.29 µM
- TGI (NCI/ADR-RES ovarian): > 100 µM
- GI50 (OVCAR-8 ovarian): 4.38 µM
- TGI (OVCAR-8 ovarian): > 100 µM

SMILES: NS(=O)(=O)c1ccc(NCc2cnc3ccccc3n2)cc1
- TGI (HS 578T breast): > 100 µM
- TGI (SN12C renal): > 100 µM
- TGI (IGROV1 ovarian): > 100 µM
- TGI (NCI-H460 lung): > 100 µM
- TGI (EKVX NSCLC): > 100 µM
- TGI (K-562 leukemia): > 100 µM
- TGI (SK-OV-3 ovarian): > 100 µM
- TGI (SK-MEL-2 melanoma): > 100 µM
- TGI (NCI/ADR-RES ovarian): > 100 µM
- TGI (OVCAR-8 ovarian): > 100 µM

SMILES: CCCCCCCCCCCCCCCC(=O)N[C@H](/C=C/[C@H](O)CCCCCCCCCCCCC)CO
- GI50 (HS 578T breast): > 100 µM
- TGI (HS 578T breast): > 100 µM
- GI50 (SN12C renal): > 100 µM
- TGI (SN12C renal): > 100 µM
- GI50 (IGROV1 ovarian): > 100 µM
- TGI (IGROV1 ovarian): > 100 µM
- GI50 (NCI-H460 lung): > 100 µM
- TGI (NCI-H460 lung): > 100 µM
- GI50 (EKVX NSCLC): > 100 µM
- TGI (EKVX NSCLC): > 100 µM
- GI50 (K-562 leukemia): > 100 µM
- TGI (K-562 leukemia): > 100 µM
- GI50 (SK-OV-3 ovarian): > 100 µM
- TGI (SK-OV-3 ovarian): > 100 µM
- GI50 (NCI/ADR-RES ovarian): > 100 µM
- TGI (NCI/ADR-RES ovarian): > 100 µM
- GI50 (OVCAR-8 ovarian): > 100 µM
- TGI (OVCAR-8 ovarian): > 100 µM

SMILES: NC1CCC(Nc2nc(NCc3cc(Cl)ccc3O)c3ncn(C4CCCC4)c3n2)CC1 (configuration not stated)
- GI50 (HS 578T breast): 0.222 µM
- TGI (HS 578T breast): 0.893 µM
- GI50 (SN12C renal): 0.143 µM
- TGI (SN12C renal): 0.759 µM
- GI50 (IGROV1 ovarian): 0.204 µM
- TGI (IGROV1 ovarian): 0.771 µM
- GI50 (NCI-H460 lung): 0.125 µM
- TGI (NCI-H460 lung): 0.958 µM
- GI50 (EKVX NSCLC): 0.262 µM
- TGI (EKVX NSCLC): 0.928 µM
- GI50 (K-562 leukemia): 0.175 µM
- TGI (K-562 leukemia): 0.461 µM
- GI50 (SK-OV-3 ovarian): 0.494 µM
- TGI (SK-OV-3 ovarian): 1.65 µM
- GI50 (SK-MEL-2 melanoma): 0.188 µM
- TGI (SK-MEL-2 melanoma): 0.356 µM
- GI50 (NCI/ADR-RES ovarian): 0.156 µM
- TGI (NCI/ADR-RES ovarian): 0.316 µM

SMILES: CCOc1ccc2c(C)cc(=O)oc2c1
- TGI (HS 578T breast): > 100 µM
- TGI (SN12C renal): > 100 µM
- TGI (IGROV1 ovarian): > 100 µM
- TGI (NCI-H460 lung): > 100 µM
- TGI (EKVX NSCLC): > 100 µM
- TGI (K-562 leukemia): > 100 µM
- TGI (SK-MEL-2 melanoma): > 100 µM
- TGI (NCI/ADR-RES ovarian): > 100 µM
- TGI (OVCAR-8 ovarian): > 100 µM

SMILES: O=S(=O)(c1ccc(Br)cc1)N1CCN(S(=O)(=O)c2ccc(Br)cc2)CC1
- TGI (HS 578T breast): > 100 µM
- TGI (SN12C renal): > 100 µM
- TGI (IGROV1 ovarian): > 100 µM
- TGI (EKVX NSCLC): > 100 µM
- TGI (K-562 leukemia): > 100 µM
- TGI (SK-OV-3 ovarian): > 100 µM
- TGI (SK-MEL-2 melanoma): > 100 µM
- TGI (NCI/ADR-RES ovarian): > 100 µM
- TGI (OVCAR-8 ovarian): > 100 µM

SMILES: CC(C)(CCN=C(N)Nc1ccccn1)c1ccc(C(F)(F)F)cc1
- GI50 (HS 578T breast): 18.1 µM
- TGI (HS 578T breast): 39.3 µM
- GI50 (SN12C renal): 15.1 µM
- TGI (SN12C renal): 29.8 µM
- GI50 (IGROV1 ovarian): 12 µM
- TGI (IGROV1 ovarian): 26.2 µM
- GI50 (NCI-H460 lung): 15.3 µM
- TGI (NCI-H460 lung): 31.2 µM
- GI50 (EKVX NSCLC): 11.2 µM
- TGI (EKVX NSCLC): 30.5 µM
- GI50 (SK-OV-3 ovarian): 15.8 µM
- TGI (SK-OV-3 ovarian): 30.8 µM
- GI50 (SK-MEL-2 melanoma): 16.9 µM
- TGI (SK-MEL-2 melanoma): 32.9 µM
- GI50 (NCI/ADR-RES ovarian): 17.5 µM
- TGI (NCI/ADR-RES ovarian): 32.9 µM
- GI50 (OVCAR-8 ovarian): 17.7 µM
- TGI (OVCAR-8 ovarian): 33.2 µM

SMILES: NCCCCCCCCCCCn1c2c(c3ccccc3c1=O)C(=O)c1ccccc1-2
- GI50 (HS 578T breast): 22.4 µM
- TGI (HS 578T breast): 52.6 µM
- GI50 (SN12C renal): 1.98 µM
- TGI (SN12C renal): 3.61 µM
- GI50 (NCI-H460 lung): 4.26 µM
- TGI (NCI-H460 lung): 29.7 µM
- GI50 (EKVX NSCLC): 22.5 µM
- TGI (EKVX NSCLC): 45.7 µM
- GI50 (K-562 leukemia): 2.31 µM
- TGI (K-562 leukemia): 4.58 µM
- GI50 (SK-OV-3 ovarian): 14.3 µM
- TGI (SK-OV-3 ovarian): 34.5 µM
- GI50 (NCI/ADR-RES ovarian): 3.2 µM
- TGI (NCI/ADR-RES ovarian): 17.6 µM

SMILES: N#Cc1ccsc1NC(=O)COC(=O)c1cccc(S(=O)(=O)N2CCc3ccccc32)c1
- GI50 (HS 578T breast): > 100 µM
- TGI (HS 578T breast): > 100 µM
- GI50 (IGROV1 ovarian): 7.84 µM
- TGI (IGROV1 ovarian): > 100 µM
- GI50 (NCI-H460 lung): 18.2 µM
- TGI (NCI-H460 lung): > 100 µM
- GI50 (EKVX NSCLC): 68.3 µM
- TGI (EKVX NSCLC): > 100 µM
- GI50 (K-562 leukemia): 21.3 µM
- TGI (K-562 leukemia): > 100 µM
- GI50 (SK-OV-3 ovarian): > 100 µM
- TGI (SK-OV-3 ovarian): > 100 µM
- GI50 (SK-MEL-2 melanoma): > 100 µM
- TGI (SK-MEL-2 melanoma): > 100 µM
- GI50 (NCI/ADR-RES ovarian): 27.8 µM
- TGI (NCI/ADR-RES ovarian): > 100 µM

SMILES: CSCC[C@H](NC(=O)[C@H](CC(C)C)NC(=O)[C@@H](Cc1ccccc1)NC(=O)CNC(=O)[C@@H](NC(=O)[C@H](C)NC(=O)[C@H](Cc1c[nH]c2ccccc12)NC(=O)[C@H](CCC(N)=O)NC(=O)[C@H](N)CC(N)=O)C(C)C)C(N)=O
- TGI (HS 578T breast): > 12.5 µM
- TGI (SN12C renal): > 12.5 µM
- TGI (IGROV1 ovarian): > 12.5 µM
- TGI (NCI-H460 lung): > 12.5 µM
- TGI (EKVX NSCLC): > 12.5 µM
- TGI (K-562 leukemia): > 12.5 µM
- TGI (SK-OV-3 ovarian): > 12.5 µM
- TGI (NCI/ADR-RES ovarian): > 12.5 µM
- TGI (OVCAR-8 ovarian): > 12.5 µM

SMILES: CCCCCc1cc[n+](CC(=O)c2ccc([N+](=O)[O-])cc2)cc1
- GI50 (HS 578T breast): 10.2 µM
- TGI (HS 578T breast): 36.5 µM
- GI50 (SN12C renal): 9.63 µM
- TGI (SN12C renal): > 100 µM
- GI50 (IGROV1 ovarian): 10.1 µM
- TGI (IGROV1 ovarian): 24.4 µM
- GI50 (NCI-H460 lung): 3.09 µM
- TGI (NCI-H460 lung): 11.6 µM
- GI50 (EKVX NSCLC): 3.5 µM
- TGI (EKVX NSCLC): 17.5 µM
- GI50 (SK-OV-3 ovarian): 13.1 µM
- TGI (SK-OV-3 ovarian): 46.3 µM
- GI50 (SK-MEL-2 melanoma): 2.7 µM
- TGI (SK-MEL-2 melanoma): 8.66 µM
- GI50 (NCI/ADR-RES ovarian): 18.5 µM
- TGI (NCI/ADR-RES ovarian): 52.2 µM
- GI50 (OVCAR-8 ovarian): 5.85 µM
- TGI (OVCAR-8 ovarian): 39.6 µM
